The results in this text go back to PubChem BioAssay AID1259407 (Chemical Carcinogenesis Research Information System (CCRIS), 2018).

The data set deals with CCRIS mutagenicity, Ames/micronucleus/aberration tests. In words: CCRIS mutagenicity studies.
[1] abbreviates: Test System: AMES SALMONELLA TYPHIMURIUM, Strain/Indicator: TA97, Metabolic Activation: NONE, Method: PREINCUBATION
[2] abbreviates: Test System: AMES SALMONELLA TYPHIMURIUM, Strain/Indicator: TA98, Metabolic Activation: HAMSTER, LIVER, S-9, AROCLOR 1254 (10%), Method: PREINCUBATION
The mark [3] stands for this setting: Test System: AMES SALMONELLA TYPHIMURIUM, Strain/Indicator: TA98, Metabolic Activation: NONE, Method: PREINCUBATION
[4] abbreviates: Test System: AMES SALMONELLA TYPHIMURIUM, Strain/Indicator: TA98, Metabolic Activation: RAT, LIVER, S-9, AROCLOR 1254 (10%), Method: PREINCUBATION
Where [5] appears, read: Test System: AMES SALMONELLA TYPHIMURIUM, Strain/Indicator: TA100, Metabolic Activation: HAMSTER, LIVER, S-9, AROCLOR 1254 (10%), Method: PREINCUBATION
Setting [6] is: Test System: AMES SALMONELLA TYPHIMURIUM, Strain/Indicator: TA100, Metabolic Activation: NONE, Method: PREINCUBATION
Setting [7] is: Test System: AMES SALMONELLA TYPHIMURIUM, Strain/Indicator: TA1535, Metabolic Activation: NONE, Method: PREINCUBATION
Setting [8] is: Test System: AMES SALMONELLA TYPHIMURIUM, Strain/Indicator: TA100, Metabolic Activation: RAT, LIVER, S-9, AROCLOR 1254 (10%), Method: PREINCUBATION
The mark [9] stands for this setting: Test System: AMES SALMONELLA TYPHIMURIUM, Strain/Indicator: TA1535, Metabolic Activation: HAMSTER, LIVER, S-9, AROCLOR 1254 (10%), Method: PREINCUBATION
Setting [10] is: Test System: AMES SALMONELLA TYPHIMURIUM, Strain/Indicator: TA1535, Metabolic Activation: RAT, LIVER, S-9, AROCLOR 1254 (10%), Method: PREINCUBATION

Activity calls are given as the source filed them. How the calls were made is not given here.

Turning to `NO`, the mutagenic call was “inactive; negative” (Test System: AMES SALMONELLA TYPHIMURIUM, Strain/Indicator: TA97, Metabolic Activation: HAMSTER, LIVER, S-9, AROCLOR 1254 (10 OR 30%), Method: PREINCUBATION); “inactive; negative” under setting [1]; “inactive; negative” (Test System: AMES SALMONELLA TYPHIMURIUM, Strain/Indicator: TA97, Metabolic Activation: RAT, LIVER, S-9, AROCLOR 1254 (10 OR 30%), Method: PREINCUBATION); “inactive; negative” under setting [2]; “inactive; negative” (Test System: AMES SALMONELLA TYPHIMURIUM, Strain/Indicator: TA98, Metabolic Activation: HAMSTER, LIVER, S-9, AROCLOR 1254 (30%), Method: PREINCUBATION); “inactive; negative” under setting [3]. The mutagenic call is, setting by setting: under setting [4], “inactive; negative”; (Test System: AMES SALMONELLA TYPHIMURIUM, Strain/Indicator: TA98, Metabolic Activation: RAT, LIVER, S-9, AROCLOR 1254 (30%), Method: PREINCUBATION) “inactive; negative”; under setting [5], “inactive; negative”; (Test System: AMES SALMONELLA TYPHIMURIUM, Strain/Indicator: TA100, Metabolic Activation: HAMSTER, LIVER, S-9, AROCLOR 1254 (30%), Method: PREINCUBATION) “inactive; negative”; under setting [6], “inactive; negative”; (Test System: AMES SALMONELLA TYPHIMURIUM, Strain/Indicator: TA100, Metabolic Activation: RAT, LIVER, S-9, AROCLOR 1254 (10 OR 30%), Method: PREINCUBATION) “inactive; negative”. Besides, the mutagenic call was “inactive; negative” (Test System: AMES SALMONELLA TYPHIMURIUM, Strain/Indicator: TA102, Metabolic Activation: RAT, LIVER, S-9, AROCLOR 1254, Method: STANDARD PLATE); “inactive; negative” (Test System: AMES SALMONELLA TYPHIMURIUM, Strain/Indicator: TA1535, Metabolic Activation: HAMSTER, LIVER, S-9, AROCLOR 1254 (10 OR 30%), Method: PREINCUBATION); “inactive; negative” under setting [7]; “inactive; negative” (Test System: AMES SALMONELLA TYPHIMURIUM, Strain/Indicator: TA1535, Metabolic Activation: RAT, LIVER, S-9, AROCLOR 1254 (10 OR 30%), Method: PREINCUBATION); “active; positive” (Test System: MOUSE LYMPHOMA, Strain/Indicator: L5178Y (TK+/TK-), Metabolic Activation: NONE, Method: SUSPENSION/PLATE); “active; positive” (Test System: MOUSE LYMPHOMA, Strain/Indicator: L5178Y (TK+/TK-), Metabolic Activation: RAT, LIVER, S-9, AROCLOR 1254, Method: SUSPENSION/PLATE).

With `C=C(C)C1CO1` (stereo not drawn), the mutagenic call is “inactive; negative” (Test System: AMES SALMONELLA TYPHIMURIUM, Strain/Indicator: TA98, Metabolic Activation: NONE, Method: STANDARD PLATE) and “inactive; negative” (Test System: AMES SALMONELLA TYPHIMURIUM, Strain/Indicator: TA100, Metabolic Activation: NONE, Method: STANDARD PLATE).

As to `C1CC2(CCO1)CO2`, the mutagenic call (Test System: AMES SALMONELLA TYPHIMURIUM, Strain/Indicator: TA100, Metabolic Activation: STANDARD PLATE) is “active; positive”.

For `CN(C)c1cccc(O)c1`, the mutagenic call (Test System: AMES SALMONELLA TYPHIMURIUM, Strain/Indicator: TA97, Metabolic Activation: HAMSTER, LIVER, S-9, AROCLOR 1254 (10%), Method: PREINCUBATION) is “active; positive”; the mutagenic call under setting [1] was “inactive; negative”; the mutagenic call (Test System: AMES SALMONELLA TYPHIMURIUM, Strain/Indicator: TA97, Metabolic Activation: RAT, LIVER, S-9, AROCLOR 1254 (10%), Method: PREINCUBATION) was “active; positive”; the mutagenic call under setting [2] is “active; positive”; the mutagenic call under setting [3] was “inactive; negative”; the mutagenic call under setting [4] was “active; positive”. The mutagenic call is “active; positive” under setting [5]; “inactive; negative” under setting [6]; “active; positive” under setting [8]; “inactive; negative” under setting [9]; “inactive; negative” under setting [7]; “inactive; negative” under setting [10].

For the molecule `Cc1c2ccc(CO)cc2nc2c1ccc1ccccc12`, for the setting “Test System: AMES SALMONELLA TYPHIMURIUM, Strain/Indicator: TA100, Metabolic Activation: RAT, LIVER, S-9, AROCLOR 1254, Method: STANDARD PLATE”, the mutagenic call was “active; positive”.

On to `CC(C)CC(=O)CC(C)C`, for which the mutagenic call under setting [2] was “inactive; negative”; the mutagenic call under setting [3] is “inactive; negative”; the mutagenic call under setting [4] is “inactive; negative”; the mutagenic call under setting [5] is “inactive; negative”; the mutagenic call under setting [6] is “inactive; negative”; the mutagenic call under setting [8] is “inactive; negative”. Besides, the mutagenic call by setting is: under setting [9], “inactive; negative”; (Test System: AMES SALMONELLA TYPHIMURIUM, Strain/Indicator: TA1535, Metabolic Activation: HAMSTER, LIVER, S-9, AROCLOR 1254 (50%), Method: PREINCUBATION) “inactive; negative”; under setting [7], “inactive; negative”; under setting [10], “inactive; negative”; (Test System: AMES SALMONELLA TYPHIMURIUM, Strain/Indicator: TA1535, Metabolic Activation: RAT, LIVER, S-9, AROCLOR 1254 (50%), Method: PREINCUBATION) “inactive; negative”; (Test System: AMES SALMONELLA TYPHIMURIUM, Strain/Indicator: TA1537, Metabolic Activation: HAMSTER, LIVER, S-9, AROCLOR 1254 (10%), Method: PREINCUBATION) “inactive; negative”. In addition, the mutagenic call (Test System: AMES SALMONELLA TYPHIMURIUM, Strain/Indicator: TA1537, Metabolic Activation: HAMSTER, LIVER, S-9, AROCLOR 1254 (50%), Method: PREINCUBATION) is “inactive; negative”; the mutagenic call (Test System: AMES SALMONELLA TYPHIMURIUM, Strain/Indicator: TA1537, Metabolic Activation: NONE, Method: PREINCUBATION) is “inactive; negative”; the mutagenic call (Test System: AMES SALMONELLA TYPHIMURIUM, Strain/Indicator: TA1537, Metabolic Activation: RAT, LIVER, S-9, AROCLOR 1254 (10%), Method: PREINCUBATION) is “inactive; negative”; the mutagenic call (Test System: AMES SALMONELLA TYPHIMURIUM, Strain/Indicator: TA1537, Metabolic Activation: RAT, LIVER, S-9, AROCLOR 1254 (50%), Method: PREINCUBATION) was “inactive; negative”.

In the case of `CCc1c2ccccc2cc2ccc3ccccc3c12`, the mutagenic call is “inactive; negative” (Test System: AMES SALMONELLA TYPHIMURIUM, Strain/Indicator: TA98, Method: STANDARD PLATE); “inactive; negative” (Test System: AMES SALMONELLA TYPHIMURIUM, Strain/Indicator: TA100, Metabolic Activation: RAT, LIVER, S-9, PHENOBARBITAL, Method: STANDARD PLATE); “inactive; negative” (Test System: AMES SALMONELLA TYPHIMURIUM, Strain/Indicator: TA100, Method: STANDARD PLATE).
